Laboratory results from patent US20230303486A1, “CYCLOBUTYL-UREA DERIVATIVES” (Idorsia Pharmaceuticals Ltd, priority 2020, published 2023).

How the values were obtained:
[1] = target: T1, Kv7.2/7.3 (human KCNQ2 and KCNQ3 genes) in HEK293 cells (Homo sapiens, UniProt O43525+O43526); assay: Kv7.2/3 assay (FLIPR potassium assay, agonist mode); assay type: cell-based; conditions: Kv7.2/7.3 activation, responses relative to Flupirtine
T1 construct: host or cells: HEK293
Description: HEK293 cells were stably transfected with the appropriate ion channel cDNA(s) (human KCNQ2 and KCNQ3 genes). Cells were cultured in Dulbecco’s Modified Eagle Medium /Nutrient mixture F-12 (D-MEM/F-12) supplemented with 10% fetal bovine serum, 100 U/mL penicillin G sodium, 100 µg/mL streptomycin sulfate and selection antibiotics. FLIPR Test Procedure: For FLIPR assay, cells were plated in 384-well black clear-bottomed microtiter plates (BD Biocoat Poly-D-Lysine Multiwell Cell Culture Plate) at 15′000 to 30′000 cells per well. Cells were incubated at 37° C. overnight or until cells reached sufficient density in the wells (near confluent monolayer) to use in fluorescence assays. […] Assays were performed with the FLIPR potassium assay kit (Molecular Devices) according to the manufacturer’s instructions. Dye-loading: Growth media was removed and replaced with 20 µL of dye loading buffer for 60 min at room temperature. FLIPR Recording (agonist mode): Stock solutions of test compounds were prepared at a concentration of 33.3 mM in DMSO. 5 µL of 5x concentrated test, vehicle, or control compounds solutions prepared in the stimulation buffer (K^+-free buffer with 5 mM TI^+) were added to each well and fluorescence recording was continued for 5 min. The agonist effect (EC50 and % effect) of test or control compounds on Kv7 channels was determined as follows: Raw data was exported using Screenworks® 4.2 software and the fluorescence traces were analysed using Microsoft Excel (Microsoft Corp., Redmond, WA). The test compounds responses were expressed as % of maximum response of the control compound Flupirtine (Sigma-Aldrich), which was tested at concentrations ranging from 0.03 to 100 µM. Concentration-response data were fitted to a Hill equation. Non-linear least squares fits were made assuming a simple binding model. If appropriate, fits were weighted by the standard deviation. No assumptions about the fit parameters were made; the fit parameters were determined by the algorithm.

[2] = tested on: fully kindled Wistar rats; assay: Amygdala-kindling rat model; assay type: in vivo; conditions: challenge 1 h
Description: Compounds were formulated in a 10% polyethylene glycol 400 (PEG 400) / 90% aqueous solution of 0.5 % methylcellulose (MC 0.5%). Firstly drugs are dissolved in PEG 400 and then suspended in MC 0.5 % for oral gavage at Xmg/5 mL/kg (X see table).
• 1. Procedure: Adult male Wistar rats (Harlan Laboratories, Netherlands, or Charles Rivers, Germany; body weight 300-350 g) were stereotaxically implanted with twisted bipolar plastic-coated stainless steel electrode (MS333-2-BIU 10 mm, Plastics One) into the right basolateral amygdala under isoflurane anesthesia. To place the electrode, trepanations were made in the skull and the electrode was lowered into the right basolateral amygdala (from bregma: anteriorposterior (AP): -2.5 mm, medio-lateral (ML): -3.5 mm, dorso-ventral (DV): -8.6 mm; α=10^0) and secured to the skull with screws and dental acrylate. After one week of recovery, they were handled daily and habituated over one week to the kindling setup. Kindling procedure: For a kindling session each rat was placed individually into a smooth acrylic plastic, round-bottomed bowl (0 36 cm, height 36 cm, BASi movement-responsive caging system) and its intracranial implanted electrode was connected to the stimulator (STG4008, Multichannel Systems GmbH) and the recording devices (PowerLab 8/35, ADInstruments Ltd) via a cable (335-340/3 (C), Plastics One). For the kindling procedure, each rat was exposed once daily to an electrical stimulation and the behavioral symptoms of the evoked seizure were observed and classified according to the modified Racine scale (stage 0, arrest, wet dog shakes, normal behaviour; stage 1, facial twitches: nose, lips, eyes; stage 2, chewing, head nodding; stage 3, forelimb clonus; stage 4, rearing, falling on forelimbs; stage 5, rearing, falling on side or back, rolling). […] The duration of electroencephalographic seizures (afterdischarge, AD) was recorded using LabChart7 Pro software (ADInstruments Ltd). Simultaneously, videos were recorded to evaluate seizure stage (SS). • 2. Compound testing: Acute drug effects were evaluated in groups of 6-8 fully kindled rats in a randomized cross-over design with 48h between drug and vehicle applications. Following oral administration of drug or vehicle, drug testing included determination of the afterdischarge threshold (the minimal stimulation intensity necessary to evoke an afterdischarge (electroencephalographically measured neuronal hyper-synchronous activity with an amplitude 2-times higher than baseline amplitude and a frequency of […]) of at least 3 sec duration) and monitoring electroencephalographic and behavioral correlates of the evoked seizure at ADT (afterdischarge threshold), including AD duration and SS, by a experimenter blind to treatment assignment.

EC50 [1] [nM]	Structure (SMILES)	AD duration [% vs veh] ([2]; 30 mg/kg po)	Seizure stage [% vs veh] ([2]; 30 mg/kg po)	AD duration [% vs veh] ([2]; 10 mg/kg po)	Seizure stage [% vs veh] ([2]; 10 mg/kg po)
82	O=C(NCc1cccc(C(F)(F)F)c1)NC1CC(C(F)F)C1 (single isomer, unassigned) [Example 53, 1-(3-(Difluoromethyl)Cyclobutyl)-3-(3-(Trifluoromethyl)Benzyl)Urea]	-93	-81		
59	O=C(NCc1cccc(C(F)(F)F)c1)NC12CC(C(F)F)(C1)C2 [Example 47, 1-(3-Difluoromethyl-Bicyclo[1.1.1]Pent-1-yl)-3-(3-Trifluoromethyl-Benzyl)-Urea]			-85	-70
